Measured values: US9670227B2, “Thienopyrimidine derivatives, a process for their preparation and pharmaceutical compositions containing them” (LES LABORATOIRES SERVIER, priority 2013, dated 2017)
Where two headings read alike, the source gives them in different places.

How the values were obtained:
Mcl-1 protein = Mcl-1 protein (UniProtKB primary accession number: Q07820) (Homo sapiens, UniProt Q07820); assay: Inhibition of Mcl-1 by fluorescence polarisation, Method 1; format: binding
Summary of the method: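 FP competition, 11-point compound titration in 5% final DMSO; protein and labelled probe at 5 nM and 1 nM final in HEPES/NaCl/Tween 20 buffer, pH 7.4.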

[1] = system: H929 multiple myeloma tumour line; assay: In vitro cytotoxicity, Microculture Tetrazolium Assay; format: cell-based; conditions: Homo sapiens, NCI-H929, 48 h
Procedure: The cytotoxicity studies were carried out on the H929 multiple myeloma tumour line.
The cells are distributed onto microplates and exposed to the test compounds for 48 hours.

[2] = fluorescence polarisation test, Method 2 values are underlined in the patent (underlining not visible here), read-out: IC50 (M) Mcl-1 FP
[3] = H929 cells, 48 hours exposure, MTT, read-out: IC50 (μM) MTT H929
[4] = fluorescence polarisation, Method 1, or Method 2, read-out: IC50 (M) Mcl-1 FP

Mcl-1 protein, sequence (Q07820 whole entry): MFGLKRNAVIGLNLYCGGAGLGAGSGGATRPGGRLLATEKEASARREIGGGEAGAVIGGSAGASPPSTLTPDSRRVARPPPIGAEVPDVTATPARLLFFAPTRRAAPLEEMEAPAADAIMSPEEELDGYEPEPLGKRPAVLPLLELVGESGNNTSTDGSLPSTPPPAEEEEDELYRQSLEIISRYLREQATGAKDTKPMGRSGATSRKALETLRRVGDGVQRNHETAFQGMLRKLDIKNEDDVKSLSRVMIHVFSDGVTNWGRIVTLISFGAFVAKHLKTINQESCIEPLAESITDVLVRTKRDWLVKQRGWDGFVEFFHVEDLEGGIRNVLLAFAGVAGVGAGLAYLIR

Row | Compound | IC50 (Mcl-1 protein; [2]) | IC50 (Mcl-1 protein; [4]) | IC50 [1, 3] | other results
1 | CCCn1nccc1COc1ccccc1CC(Oc1ncnc2sc(-c3ccc(F)o3)c(-c3ccc(OCCN4CCN(C)CC4)c(Cl)c3C)c12)C(=O)O [Example 187, (2R)-2-{[(5Sa)-5-{3-chloro-2-methyl-4-[2-(4-methylpiperazin-1-yl)ethoxy]phenyl}-6-(5-fluorofuran-2-yl)thieno[2,3-d]pyrimidin-4-yl]oxy}-3-{2-[(1-propyl-1H-pyrazol-5-yl)methoxy]phenyl}propanoic acid] | 2.8e-09 M | – | 0.02 µM | –
2 | Cc1c(-c2c(-c3ccc(F)cc3)sc3ncnc(OC(Cc4ccccc4OCC(F)(F)F)C(=O)O)c23)ccc(OCCN(C)C)c1Cl [Example 127, (2R)-2-{[(5Sa)-5-{3-chloro-4-[2-(dimethylamino)ethoxy]-2-methylphenyl}-6-(4-fluorophenyl)thieno[2,3-d]pyrimidin-4-yl]oxy}-3-[2-(2,2,2-trifluoroethoxy)phenyl]propanoic acid] | 2e-08 M | – | 0.558 µM | –
3 | Cc1cc(COc2ccccc2CC(Oc2ncnc3sc(-c4ccc(F)cc4)c(-c4ccc(OCCN5CCN(C)CC5)c(Cl)c4C)c23)C(=O)O)ccn1 [Example 16, (2R)-2-{[(5Sa)-5-{3-chloro-2-methyl-4-[2-(4-methylpiperazin-1-yl)ethoxy]phenyl}-6-(4-fluorophenyl)thieno[2,3-d]pyrimidin-4-yl]oxy}-3-{2-[(2-methylpyridin-4-yl)methoxy]phenyl}propanoic acid] | 5.9e-09 M | – | 0.095 µM | –
4 | CCc1sc2ncnc(OC(Cc3cccc4c3OCO4)C(=O)O)c2c1-c1ccc(OCCN2CCN(C)CC2)c(Cl)c1C [Example 460, (2R)-3-(1,3-benzodioxol-4-yl)-2-[((5Sa)-5-{3-chloro-2-methyl-4-[2-(4-methylpiperazin-1-yl)ethoxy]phenyl}-6-ethylthieno[2,3-d]pyrimidin-4-yl)oxy]propanoic acid] | – | 1.3e-07 M | 6.82 µM | –
5 | COc1ccccc1CC(Oc1ncnc2sc(-c3ccc(F)cc3)c(-c3ccc(OCCN4CCN(C)CC4)c(Cl)c3C)c12)C(=O)OCc1oc(=O)oc1C [Example 644, (5-methyl-2-oxo-1,3-dioxol-4-yl)methyl (2R)-2-{[(5Sa)-5-{3-chloro-2-methyl-4-[2-(4-methylpiperazin-1-yl)ethoxy]phenyl}-6-(4-fluorophenyl)thieno[2,3-d]pyrimidin-4-yl]oxy}-3-(2-methoxyphenyl)propanoate] | – | 3.7e-07 M | 0.248 µM | –
6 | Cc1c(-c2c(-c3ccco3)sc3ncnc(OC(Cc4ccccc4OCc4cccnn4)C(=O)O)c23)ccc(OCCN2CCN(C)CC2)c1Cl [Example 243, (2R)-2-{[(5Sa)-5-{3-chloro-2-methyl-4-[2-(4-methylpiperazin-1-yl)ethoxy]phenyl}-6-(furan-2-yl)thieno[2,3-d]pyrimidin-4-yl]oxy}-3-[2-(pyridazin-3-ylmethoxy)phenyl]propanoic acid] | 5.6e-09 M | – | 0.211 µM | –
7 | COc1ccccc1CC(Oc1ncnc2sc(-c3ccc(F)c(Cl)c3)c(-c3ccc(OCCN4CCN(C)CC4)c(Cl)c3C)c12)C(=O)O [Example 532, (2R)-2-{[6-(3-chloro-4-fluorophenyl)-(5Sa)-5-{3-chloro-2-methyl-4-[2-(4-methylpiperazin-1-yl)ethoxy]phenyl}thieno[2,3-d]pyrimidin-4-yl]oxy}-3-(2-methoxyphenyl)propanoic acid] | – | 5.9e-08 M | 0.323 µM | –
8 | COc1cccc(COc2ccccc2CC(Oc2ncnc3sc(-c4ccco4)c(-c4ccc(OCCN5CCN(C)CC5)c(Cl)c4C)c23)C(=O)O)n1 [Example 238, (2R)-2-{[(5Sa)-5-{3-chloro-2-methyl-4-[2-(4-methylpiperazin-1-yl)ethoxy]phenyl}-6-(furan-2-yl)thieno[2,3-d]pyrimidin-4-yl]oxy}-3-{2-[(6-methoxypyridin-2-yl)methoxy]phenyl}propanoic acid] | 5.9e-09 M | – | 0.077 µM | –
9 | CCCCn1nccc1COc1ccccc1CC(Oc1ncnc2sc(-c3ccc(OC)nc3)c(-c3ccc(OCCN4CCN(C)CC4)c(Cl)c3C)c12)C(=O)O [Example 608, (2R)-3-{2-[(1-butyl-1H-pyrazol-5-yl)methoxy]phenyl}-2-{[(5Sa)-5-{3-chloro-2-methyl-4-[2-(4-methylpiperazin-1-yl)ethoxy]phenyl}-6-(6-methoxypyridin-3-yl)thieno[2,3-d]pyrimidin-4-yl]oxy}propanoic acid] | – | 4.2e-09 M | 0.021 µM | –
10 | COc1ccccc1CC(Oc1ncnc2sc(-c3ccc(C#N)o3)c(-c3ccc(OCCN4CCN(C)CC4)c(Cl)c3C)c12)C(=O)O [Example 579, (2R)-2-{[(5Sa)-5-{3-chloro-2-methyl-4-[2-(4-methylpiperazin-1-yl)ethoxy]phenyl}-6-(5-cyanofuran-2-yl)thieno[2,3-d]pyrimidin-4-yl]oxy}-3-(2-methoxyphenyl)propanoic acid] | – | 8.5e-09 M | 0.463 µM | –
11 | CCc1sc2ncnc(OC(Cc3ccccc3OCc3ccnn3CC)C(=O)O)c2c1-c1ccc(OCCN2CCN(C)CC2)c(Cl)c1C [Example 456, (2R)-2-[((5Sa)-5-{3-chloro-2-methyl-4-[2-(4-methylpiperazin-1-yl)ethoxy]phenyl}-6-ethylthieno[2,3-d]pyrimidin-4-yl)oxy]-3-{2-[(1-ethyl-1H-pyrazol-5-yl)methoxy]phenyl}propanoic acid] | – | 8e-09 M | 0.513 µM | –
12 | COCCOc1ccccc1CC(Oc1ncnc2sc(-c3ccc(F)c(OC)c3)c(-c3ccc(OCCN4CCN(C)CC4)c(Cl)c3C)c12)C(=O)O [Example 387, (2R)-2-{[(5Sa)-5-{3-chloro-2-methyl-4-[2-(4-methylpiperazin-1-yl)ethoxy]phenyl}-6-(4-fluoro-3-methoxyphenyl)thieno[2,3-d]pyrimidin-4-yl]oxy}-3-[2-(2-methoxyethoxy)phenyl]propanoic acid] | – | – | – | IC50 (Mcl-1 protein; IC50 (M) Mcl-1 FP, fluorescence polarisation test, Method 2 values are underlined in the patent (underlining not visible here)): 4e-09 M; IC50 ([1]; read-out: IC50 (μM) MTT H929): 0.202 µM
13 | COCCNC(=O)COc1ccccc1CC(Oc1ncnc2sc(-c3ccc(F)o3)c(-c3ccc(OCCN4CCN(C)CC4)c(Cl)c3C)c12)C(=O)O [Example 157, (2R)-2-{[(5Sa)-5-{3-chloro-2-methyl-4-[2-(4-methylpiperazin-1-yl)ethoxy]phenyl}-6-(5-fluorofuran-2-yl)thieno[2,3-d]pyrimidin-4-yl]oxy}-3-(2-{2-[(2-methoxyethyl)amino]-2-oxoethoxy}phenyl)propanoic acid] | 7e-09 M | – | 0.286 µM | –

Further lines, with some results ahead:

Row | IC50 (Mcl-1 protein; [2]) | IC50 (Mcl-1 protein; [4]) | Compound | IC50 [1, 3] | other results
14 | 1.6e-08 M | – | Cc1c(-c2c(-c3ccco3)sc3ncnc(OC(Cc4ccccc4OCc4cn(Cc5ccccc5)nn4)C(=O)O)c23)ccc(OCCN2CCN(C)CC2)c1Cl [Example 294, (2R)-3-{2-[(1-benzyl-1H-1,2,3-triazol-4-yl)methoxy]phenyl}-2-{[(5Sa)-5-{3-chloro-2-methyl-4-[2-(4-methylpiperazin-1-yl)ethoxy]phenyl}-6-(furan-2-yl)thieno[2,3-d]pyrimidin-4-yl]oxy}propanoic acid] | 0.886 µM | –
15 | 8e-09 M | – | COCCOc1ccccc1CC(Oc1ncnc2sc(-c3ccc(F)o3)c(-c3ccc(OCCN4CCN(C)CC4)c(Cl)c3C)c12)C(=O)O [Example 194, (2R)-2-{[(5Sa)-5-{3-chloro-2-methyl-4-[2-(4-methylpiperazin-1-yl)ethoxy]phenyl}-6-(5-fluorofuran-2-yl)thieno[2,3-d]pyrimidin-4-yl]oxy}-3-[2-(2-methoxyethoxy)phenyl]propanoic acid] | 0.058 µM | –
16 | – | 1.09e-09 M | COc1ccccc1-c1nccc(COc2ccccc2CC(Oc2ncnc3sc(-c4ccc(OCc5ccsc5)cc4)c(-c4ccc(OCCN5CCN(C)CC5)c(Cl)c4C)c23)C(=O)O)n1 [Example 778, (2R)-2-[((5Sa)-5-{3-chloro-2-methyl-4-[2-(4-methylpiperazin-1-yl)ethoxy]phenyl}-6-[4-(thiophen-3-ylmethoxy)phenyl]thieno[2,3-d]pyrimidin-4-yl)oxy]-3-(2-{[2-(2-methoxyphenyl)pyrimidin-4-yl]methoxy}phenyl)propanoic acid] | 0.013 µM | –
17 | – | 1.73e-09 M | COc1ccccc1-c1nccc(COc2ccccc2CC(Oc2ncnc3sc(-c4ccc(OCc5ccccc5C)cc4)c(-c4ccc(OCCN5CCN(C)CC5)c(Cl)c4C)c23)C(=O)O)n1 [Example 767, (2R)-2-[((5Sa)-5-{3-chloro-2-methyl-4-[2-(4-methylpiperazin-1-yl)ethoxy]phenyl}-6-{4-[(2-methylbenzyl)oxy]phenyl}thieno[2,3-d]pyrimidin-4-yl)oxy]-3-(2-{[2-(2-methoxyphenyl)pyrimidin-4-yl]methoxy}phenyl)propanoic acid] | 0.05 µM | –
18 | – | 2.7e-08 M | COc1ccccc1C[C@@H](Oc1ncnc2sc(-c3cccc(F)c3F)c(-c3ccc(C#CCN4CCN(C)CC4)c(Cl)c3C)c12)C(=O)O (single isomer, unassigned) [Example 717] | – | IC50 ([1]; read-out: IC50 (μM) MTT H929, H929 cells, 48 hours exposure, MTT): 0.865 µM
19 | – | 6.2e-08 M | COc1ccccc1CC(Oc1ncnc2sc(C(C)(F)F)c(-c3ccc(OCCN4CCN(C)CC4)c(Cl)c3C)c12)C(=O)O [Example 576, (2R)-2-{[(5Sa)-5-{3-chloro-2-methyl-4-[2-(4-methylpiperazin-1-yl)ethoxy]phenyl}-6-(1,1-difluoroethyl)thieno[2,3-d]pyrimidin-4-yl]oxy}-3-(2-methoxyphenyl)propanoic acid] | 1.51 µM | –
20 | 1.2e-08 M | – | Cc1c(-c2c(-c3ccco3)sc3ncnc(OC(Cc4ccccc4OCCC(F)(F)F)C(=O)O)c23)ccc(OCCN2CCN(C)CC2)c1Cl [Example 288, (2R)-2-{[(5Sa)-5-{3-chloro-2-methyl-4-[2-(4-methylpiperazin-1-yl)ethoxy]phenyl}-6-(furan-2-yl)thieno[2,3-d]pyrimidin-4-yl]oxy}-3-[2-(3,3,3-trifluoropropoxy)phenyl]propanoic acid] | 0.086 µM | –
